Results taken from patent publication US5965372A, “Genetic sequences encoding glucocorticoid dehydrogenases and uses thereof” (Baker Medical Research Institute, priority 1996, dated 1999).

Tests used:
[1] = target: T1, 11βHSD2 (Homo sapiens, UniProt P80365); test: Directionality and end product inhibition in intact pHSD2 transfected CHOP cells; type: cell-based; conditions: monolayer cultures, 1.5 hours at 37° C., 1-2 nM labelled substrate, TLC
T1 construct: homogenates or intact cells
T1 sequence (P80365 1-405 V148L): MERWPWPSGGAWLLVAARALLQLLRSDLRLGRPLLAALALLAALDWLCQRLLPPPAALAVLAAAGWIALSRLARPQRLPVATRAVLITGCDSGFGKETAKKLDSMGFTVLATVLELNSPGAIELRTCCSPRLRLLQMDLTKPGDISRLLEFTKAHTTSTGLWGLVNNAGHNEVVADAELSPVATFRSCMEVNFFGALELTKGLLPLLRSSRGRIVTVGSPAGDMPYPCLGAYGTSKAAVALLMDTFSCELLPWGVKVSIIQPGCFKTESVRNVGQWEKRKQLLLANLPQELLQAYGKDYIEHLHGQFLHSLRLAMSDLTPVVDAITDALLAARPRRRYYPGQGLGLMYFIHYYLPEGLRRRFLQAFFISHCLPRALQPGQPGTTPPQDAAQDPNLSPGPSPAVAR
Protocol: To determine directionality and extent of end production inhibition of the enzyme encoded by pHSD2, monolayer cultures of transfected CHOP cells were incubated for 1.5 hours at 37° C. with 1-2 nM labelled substrates plus 10 nM corresponding unlabelled 11-dehydro metabolite (FIG. 2b). The culture medium was then removed, extracted and assayed by TLC for the presence of the 11-dehydro metabolite.
Dehydrogenase activity was also estimated in the presence of an excess of the respective 11-dehydro metabolite (FIG. 2b, III).

[2] = target: T1, 11βHSD2; test: Km determination in homogenates of pHSD2 transfected CHOP cells; type: biochemical; conditions: double reciprocal plot, 37° C., mean±SD, n=3
From the text: The efficiency of the dehydrogenase may be further increased by mechanisms such as intracellular compartmentalisation of the enzyme.

[3] = target: T1, 11βHSD2; test: Cofactor specificity of glucocorticoid metabolism in homogenates of pHSD2 transfected CHOP cells; type: biochemical; conditions: 1 mM NAD+ or 1 mM NADP+, 37° C. for 40 minutes, TLC
Protocol: CHOP cells were transfected with plasmid pHSD2, which contains an insert encoding 11βHSD2. After 60 hours incubation in 85 mm plates, cellular homogenates were prepared and assayed for their ability to metabolise glucocorticoid substrates in the presence of 1 mM NAD+, or 1 mM NADP+. Confluent cells were homogenised in 1 ml of homogenisation buffer (0.25 M sucrose, 10 MM phosphate, pH 7). Reaction mixtures (500 μl) contained either 40 μl of homogenate plus [^3 H]corticosterone, or 80 μl of homogenate plus [^3 H]cortisol, or 120 μl of homogenate plus [^3 H]dexamethasone, in homogenisation buffer. All reactions contained 1-2 nM tritiated glucocorticoid substrate plus 10 nM unlabelled glucocorticoid substrate. Reaction mixtures were incubated at 37° C. for 40 minutes and steroid metabolites were assayed by thin layer chromatography.

SMILES | metabolite formation by intact transfected CHOP cells [1] | Km [2] | glucocorticoid metabolism to 11-dehydro metabolite, cofactor dependence [3]
C[C@]12CC(=O)[C@H]3[C@@H](CCC4=CC(=O)CC[C@@]43C)[C@@H]1CC[C@@H]2C(=O)CO [11-dehydro corticosterone] | no metabolite formed |  | 
C[C@]12C[C@H](O)[C@H]3[C@@H](CCC4=CC(=O)CC[C@@]43C)[C@@H]1CC[C@@H]2C(=O)CO [corticosterone] | converted | 5.1 ± 1.2 nM | only showed significant glucocorticoid metabolism when NAD+, but not NADP+, was included as a cofactor
C[C@]12CCC(=O)C=C1CC[C@@H]1[C@@H]2[C@@H](O)C[C@@]2(C)[C@H]1CC[C@]2(O)C(=O)CO [cortisol] | converted |  | only showed significant glucocorticoid metabolism when NAD+, but not NADP+, was included as a cofactor
C[C@]12CCC(=O)C=C1CC[C@@H]1[C@@H]2C(=O)C[C@@]2(C)[C@H]1CC[C@]2(O)C(=O)CO [cortisone] | no metabolite formed |  | 
C[C@@H]1C[C@H]2[C@@H]3CCC4=CC(=O)C=C[C@]4(C)[C@@]3(F)[C@@H](O)C[C@]2(C)[C@@]1(O)C(=O)CO [dexamethasone] |  |  | only showed significant glucocorticoid metabolism when NAD+, but not NADP+, was included as a cofactor
